Like-named read-outs stand apart in the source and are kept apart here.

The values below come from patent US12594292B2, “Antiviral prodrugs, intermediate-and long-acting formulations and methods” (priority 2022, dated 2026).

Series [1] in a line: 42 day pharmacokinetic study after a single IM administration in rats, formulations F3, F4, F7, F8. The series is classed as in vivo. The conditions noted are these: for time with plasma levels at a virally significant level: rats, IM, only the 100 mg/kg dose, formulation F3. On the procedure: Comparison of Formulations F3, F4, F7 and F8 following a single IM administration in rats—Groups: Vehicle control, 10 mg/kg, 30 mg/kg and 100 mg/kg of formulations 3, 4, 7, 8.
Procedure: At time zero rats were injected intramuscularly with 100 microliters of vehicle and formulations as noted. […] Blood was obtained at 6, 24 and 48 hours, and at 7, 14, 28, 35 and 42 days and the plasma levels of ODE-Bn-TFV and ODE-TFV (the first metabolite, also an active anti-HIV compound) were determined by LC/MS/MS.
A 42 days pharmacokinetic study of formulations 3, 4, 7, and 8 of this example in rats was conducted. In the study, 100, 30, and 10 mg/kg of each formulation was administered by intramuscular (IM) injection to male Sprague Dawley rates (100 microliters). […] The rats were subjected to twice weekly clinical observations, and weights were collected.

For series [2] the following is noted: rat, in vivo.
Procedure: Maximal volume IM injections of 100 microliters were given at day 0, 30 and 60 to groups of 3 rats. There were 3 groups of control animals who received monthly injections of F3 vehicle. […] Weights were assessed over the 3-month period. […] Because a constant (maximal) IM volume of 100 microliters was given, the initial dose was 90 mg/kg and the two following injections at days 30 and 60 were lower, 62 mg/kg, due to weight increases of the rats.
Another series deals with HFF cells. The experiment in a line: Persistence of TFVpp in HFF cells after a 3 day exposure. From the text: HFF cells were exposed to 1 micromolar drug for 3 days. At days 0, 1, 2, 4, 7, 14, 21, and 28, cells were trypsinized, counted, and processed for LC/MS measurement of TFVpp. Data were expressed at ftg/cell. nm=not meaningful; ftg—gemtogram.
For series [3], the system named is HIV-1. As to conditions: for EC50: HIV infected human PBMCs.
Procedure: Antiviral activities were determined in HIV infected human PBMCs.
Details of series [4]: species or system beagle dogs. The conditions noted are these: dog, in vivo. On the procedure: Canine Pharmacokinetics of ODE-Bn-TFV in Formulation F3—A 30 day study in beagle dogs was done with 30 mg/kg IM doses of ODE-Bn-TFV in formulation F3.
The next series concerns human PBMCs. The series can be described thus: Cytotoxicity (CC50) in human PBMCs. The format is cell-based.
For series [5], the system named is HIV-1. As to conditions: Beadle et al. Antiviral Res. 2019; cited from earlier work.
The test system of series [6] is VERO E6 cells. The experiment in a line: Cellular cytotoxicity in Vero E6 cells, MTT assay (Example 2). The series is classed as cell-based. On the procedure:
(§1) Ten thousand Vero E6 cells were seeded in 100 microliters of culture medium in 96 well plates. The following day serial two-fold dilutions of antiviral compounds or the DMSO-containing vehicle were added to each well. The USA WA-01 strain of SARS CoV-2 was added to each well at a multiplicity of infection of 0.1 thirty minutes later. Cells were incubated for 48 hours, washed twice in PBS and lysed with TRIzol. RNA was extracted using Directzol micro RNA columns. RNA was made into cDNA and assayed for the SARS CoV-2 spike protein and for a housekeeping gene (RPLPO) RNA by qPCR. Data represents the average of duplicate wells. Cellular cytotoxicity was also measured in VERO E6 cells. […] Cytotoxicity (CC50) was assessed using a commercially available MTT assay.
Background: Tetrazolium dyes change colour on reduction, which living cells bring about.

For series [7], the system named is Huh7.5 cells. The experiment in a line: Cell viability assay CellTiter-Glo, Huh7.5 cells (Example 7). (ATP-based viability assays read luminescence as a measure of living cells.)
The subject of series [8] is SARS-CoV-2 isolate USA-WA1/2020. The experiment in a line: SARS-CoV-2 infection in Vero E6 cells, qRT-PCR (Example 7). The series is classed as cell-based. As to conditions: for Selectivity: CC50/EC50, Vero E6 cells; for EC50 / EC90: Vero E6 cells, MOI 0.01, 48 hours.
Series [9] deals with USA WA-01 strain of SARS CoV-2. The experiment in a line: Anti-coronavirus activity in Vero E6 cells, qPCR of spike RNA (Example 2). The format is cell-based. As to conditions: for Selectivity Index: CC50/EC50, Vero E6; for EC50 / EC90: MOI 0.1, 48 hours. How it is done:
as §1
In general terms: In qPCR the cycle at which signal appears reflects the starting amount.

In series [10] the test system is VERO E6 cells. The series can be described thus: Cell viability assay CellTiter-Glo, Vero E6 cells (Example 7).
A further series has as its system HCoV-229E. The format is cell-based, human Coronavirus 229E.
Series [11] has as its system SARS-CoV-2 isolate USA-WA1/2020. The series can be described thus: SARS-CoV-2 infection in Vero E6 cells, qRT-PCR of Spike RNA (Example 3). The conditions noted are these: for Selectivity: CC50/EC50, Vero E6; for EC50 / EC90: Vero E6 cells, MOI 0.01, 48 hours, mean±SD. The format is cell-based.
Series [12] has the same test system. The experiment in a line: SARS-CoV-2 infection in PSC-human lung cells, qRT-PCR (Example 7). The series is classed as cell-based. As to conditions: for EC50 / EC90: PSC-human lung cells, MOI 0.01, 48 hours.
In series [13] the test system is VERO E6 cells. The experiment in a line: CellTiter-Glo luminescent cell viability assay, Vero E6 (Example 3). The series is classed as cell-based. On the procedure: CellTiter-glo luminescent cell viability assay: Approximately 10^4 Vero E6 cells per well were seeded in opaque walled 96 well cell culture plates and incubated overnight. Compounds or controls were added at the indicated concentrations. […] Viability was calculated compared to untreated controls and CC50 values were calculated using Prism 8.
Determination of Cytotoxicity: The 50% cytotoxic concentrations (CC50) were determined with Cell Titer Glo (Cat. #G7570, Promega, Madison, WI) according to the manufacturer's instructions. The calculated CC50 values are shown in the foregoing table.
Relative viability was measured by CellTiter-Glo luminescent cell viability assay, as depicted at FIG. 2.

The subject of series [14] is SARS-CoV-2 isolate USA-WA1/2020. The series can be described thus: SARS-CoV-2 infection in Huh7.5 cells, qRT-PCR (Example 7). The format is cell-based. As to conditions: for Selectivity: CC50/EC50, Huh7.5 cells; for EC50 / EC90: Huh7.5 cells, MOI 0.01, 48 hours, qRT-PCR (Example 7).
In series [15] the test system is Huh7.5 cells. The series can be described thus: Cytotoxicity in Huh7.5 cells, nuclei count (Example 6). The series is classed as cell-based, human.
Series [16] has as its system SARS-CoV-2 isolate USA-WA1/2020. The series can be described thus: SARS-CoV-2 infection in Caco-2 cells, qRT-PCR (Example 7). The series is classed as cell-based.
Series [17] shares this test system. The series can be described thus: SARS-CoV-2 infection in Calu-3 cells, qRT-PCR (Example 7). The series is classed as cell-based.
In the next series the test system is Caco-2 cells. The experiment in a line: Cell viability assay CellTiter-Glo, Caco-2 cells (Example 7). As to conditions: Caco-2 cells, CellTiter-Glo.
The next series relates to PSC-human lung cells. The series can be described thus: Cell viability assay CellTiter-Glo, PSC-human lung cells (Example 7).
The subject of another series is Calu-3 cells. The series can be described thus: Cell viability assay CellTiter-Glo, Calu-3 cells (Example 7). The conditions noted are these: Calu-3 cells, CellTiter-Glo.
Where [18] appears, read: Caco-2 cells, MOI 0.01, 48 hours.

In series [1] (rat, in vivo), “Octadecyloxyethyl benzyl tenofovir [ODE-Bn-TFV]” yielded an initial plasma values of roughly 100 ng/mL. For the same compound, the “time with plasma levels at a virally significant level” value in series [1] was determined as 28 days. Further, in series [2], the “clinical observations, metabolic panels, CBCs” value was “no clinical observations of significance”. Further, in the series with HFF cells, the “T1/2 of TFVpp” value is listed as 3.7 and the “Tmax of TFVpp” value turned out to be 48 h. The EC50 in the series with HIV-1 [3] amounted to 0.0017 µM. Besides, the ED90 in the series with HIV-1 [3] (reference line in FIG. 12A) came out at 10.9 ng/mL. Moreover, in the series on HIV-1 [3] (variation of the diester substituent of ODE-TFV), the “Selectivity Index” value came out at 5130. Moreover, the adverse effects entry in series [4] is reported as “no adverse effects except for some transient swelling at the injection sites”. This compound also returned a CC50 in the series on human PBMCs of 8.72 µM.
For `CCCCCCCCCCCCCCCCCCOCCOP(=O)(O)CO[C@H](C)Cn1cnc2c(N)ncnc21` [ODE-TFV], the “time with plasma levels at a virally significant level” value in series [1] worked out at 28 days. The EC90 in the series with HIV-1 [5] was 0.01 µM. In the series on HFF cells, the “T1/2 of TFVpp” value came to 1.2 and the “Tmax of TFVpp” value is 0 h. In addition, a half-maximal effect in the series with HIV-1 [3] (EC50) was put at 0.0011 µM. The ED90 in the series on HIV-1 [3] (reference line in FIG. 12B) was determined as 6.3 nm/mL. The same compound showed a CC50 with human PBMCs of 1.28 µM.
Turning to `CCCCCCCCCCCCCCCCOCCCOP(=O)(O)OC[C@H]1O[C@@](C#N)(c2ccc3c(N)ncnn23)[C@H](O)[C@@H]1O` [Compound 4b, 3-(Hexadecyloxy)propyl-phospho-RVn], the CC50 in the series with VERO E6 cells [6] is 21 µM; with Huh7.5 cells [7] it was greater than 100 µM; with VERO E6 cells [10], greater than 100 µM; in the series on MRC-5 cells it was 32.1 ± 17.9 µM; with VERO E6 cells [13], 51 µM; in the series on Huh7.5 cells [15], greater than 20 µM. In addition, the Selectivity in series [8] is reported as greater than 158; in [11] it was 52; in series [14], greater than 526. Also, the EC50 in [8] stood at 0.63 µM; in series [9] (Vero E6 cells) it was 0.84 µM; in the series on HCoV-229E, 3.02 ± 0.36 µM; in series [11], 0.96 ± 0.17 µM; in series [12] it was 0.35 µM; in [14], 0.19 µM. Further, a half-maximal effect in series [14] (listed as HDP-P-RVn) (EC50) was put at 0.19 µM. For the same compound, the EC90 came to 0.73 µM in series [8]; 1.58 µM in [9] (Vero E6 cells); 6.6 ± 1.14 µM with HCoV-229E; 2.1 ± 0.78 µM in series [11]; 0.94 µM in series [12]; 0.4 µM in series [14]. The “Selectivity Index” value in series [9] is recorded as 25.0. Besides, the “times more active than remdesivir” value in [9] (USA WA-1 strain, Vero E6 cells) came to 3.3.
On to `CCCCCCCCCCCCCCCCCCOCCOP(=O)(O)OC[C@H]1O[C@@](C#N)(c2ccc3c(N)ncnn23)[C@H](O)[C@@H]1O` [Compound 4c, 2-(Octadecyloxy)ethyl-phospho-RVn], for which the CC50 is greater than 50 µM with VERO E6 cells [6]; greater than 100 µM in the series on Huh7.5 cells [7]; greater than 100 µM in the series with VERO E6 cells [10]; greater than 100 µM in the series with Caco-2 cells; greater than 50 µM in the series on MRC-5 cells; greater than 100 µM in the series on PSC-human lung cells. Moreover, the CC50 was 98.7 µM with Calu-3 cells, greater than 100 µM in the series with VERO E6 cells [13] and greater than 20 µM with Huh7.5 cells [15]. For the same compound, the Selectivity in [8] is greater than 333; in series [16] (CC50/EC50, Caco-2 cells) it was greater than 129; in series [11], greater than 212; in series [17] (CC50/EC50, Calu-3 cells) it was 290; in series [12] (CC50/EC50, PSC-human lung cells) it was greater than 454; in [14], greater than 526. For the same compound, the EC50 in series [8] is 0.3 µM; in series [9] (Vero E6 cells), 0.35 µM; in [16] (setting [18]) it was 0.77 µM; in the series with HCoV-229E, 0.41 ± 0.012 µM; in series [11], 0.47 ± 0.18 µM; in series [17] (Calu-3 cells, MOI 0.01, 48 hours, listed as ODE-P-RVn), 0.34 µM. The concentration giving a half-maximal response (EC50) in [12] (listed as ODE-P-RVn) was found to be 0.22 µM; in series [14] it was 0.19 µM; in series [14] (listed as ODE-P-RVn) it was 0.19 µM. Moreover, the EC90 turned out to be 0.33 µM in series [8]; 0.53 µM in [9] (Vero E6 cells); 1.25 µM in series [16] (setting [18]); 0.84 ± 0.095 µM in the series on HCoV-229E; 1.1 ± 0.8 µM in series [11]; 0.64 µM in [17] (Calu-3 cells, MOI 0.01, 48 hours). The EC90 in [12] was 0.7 µM; in series [14], 0.37 µM. For the same compound, in series [9], the “Selectivity Index” value was greater than 143. Moreover, the “times more active than RDV” value in [11] (based on the EC50 values, Vero E6) is on record as 9.8.

Broadly, the EC50 is the concentration at which the effect is half-maximal. The term CC50 denotes the concentration giving 50% cytotoxicity. A lower CC50 goes with greater toxicity to the cells. In general, EC90 refers to the concentration needed for an effect of 90%.
